Test results: PMC11802874, “The hypolipidemic effect of MI-883, the combined CAR agonist/ PXR antagonist, in diet-induced hypercholesterolemia model” (Nature Communications, 2025)
Several values for one entry are separate records, joined by “and”; a condition that tells them apart may be missing. Identical values can stand only once.

Legend:
[1] = Stability in mouse plasma; assay type: in vitro ADME; conditions: read-out: Stability in mouse plasma, t1/2
Description: Plasma protein binding, and stability in human and mouse plasma have been tested as previously described.

[2] = molecular target: mouse Car (Mus musculus, UniProt O35627); assay: Luciferase reporter gene assay mouse Car, HepG2
Description: The luciferase reporter gene assays for FXR, LXRα, LXRβ, THα, GRα, PPARα, PPARδ/β, PPARγ, AhR, VD, ERα, ERβ and mouse Car are described in our recent paper[19]
The mouse Car expression vector pCMV6-mCar (NM_009803) was obtained from OriGene Technologies, Rockville, MD, USA).
Gal4-LBD constructs of tested nuclear receptors have been used together with pGL4.31[luc2P/GAL4UAS/Hygro] luciferase reporter construct and pRL-TK Renilla expression vector (both from Promega, Hercules, USA) in HepG2 cells transfected with Lipofectamine 2000 or 3000 reagents. For GRα and FXR receptors, full-length expression vectors have been used with pGRE-luc or pFXRE-luc luciferase constructs. For the aryl hydrocarbon receptor (AhR), p1A1-luc construct was used with only pRL-TK vector for transfection normalization. A dual reporter assay (Promega, Hercules, USA) was used to analyze both firefly and Renilla luciferase activities.
Gal4-LBD constructs of tested nuclear receptors have been used together with pGL5-luc luciferase reporter construct and pRL-TK Renilla expression vector in HepG2 cells transfected with Lipofectamine 2000 or 3000 reagents. For GRα and FXR receptors, full-length expression vectors have been used with pGRE-luc or pFXRE-luc luciferase constructs. For the aryl hydrocarbon receptor (AhR), p1A1-luc construct was used with only pRL-TK vector for transfection normalization. […] Bars represent means±S.D. (n=3).

[3] = system: humanized PXR-CAR-CYP3A4/3A7 mice fed HFD; assay: High-fat diet (HFD) study: weights, food intake, plasma biochemistry, histology; assay type: in vivo, mouse; design: BW (Fig 4b) / LW (Fig 4b) / LDL (Fig. 4e) / HDL (Fig. 4e) / TG (Fig. 4e) / Chol (Fig. 4e) / Glu (Fig. 4e) / food intake (Fig 4c) / AST / ALT / ALB / ALP / LDH / Urea / Uric acid / Fe / Bilirubin / CREZ / BW: unit not given here; conditions: for BW: FigS12c, group mean
Procedure: For experiment involving a HFD in the model of diet-induced metabolic syndrome and type 2 diabetes with hypercholesterolemia, both male and female mice at the age of 10–15 weeks were pretreated for 8 weeks with HFD (E15186 EF R/M with 30% fat, ssniff ®, Soest, Germany) containing 30.1% crude fat, 20.8% protein and 171 mg/kg of cholesterol, ad libitum (Fig. 4a). Mice were then randomly assigned to MI-883 or control groups (17 male animals per group for the control or MI-883-treated group, 15 female animals per group for control and MI-883 treated groups, respectively). They were administered via oral gavage with either MI-883 treatment (5 mg/kg, 3x per week on Mo, We, Fri) or vehicle (5%DMSO/5%PEG300/90%corn oil) while still fed with HFD. Mice were sacrificed after 4 weeks of treatment.
Mice were weighted and tissues (livers, blood, duodenum, jejunum, ileum, white fat) were removed, weighted and snap frozen in liquid nitrogen and stored at –80 °C until analysis. Blood was collected from the retro-orbital sinus of mice under isoflurane anesthesia into heparin-coated tubes (Kabe Laboratortechnik GmbH, Nümbrecht-Elsenroth, Germany) after 3 h fasting and analyzed on AU480 biochemistry analyzer (Beckman Coulter, Brea, USA). Sample preparation for bile acid and cholesterol analyses from tissues or feces is described below. One of the liver lobes was fixed in formalin, embedded in paraffin blocks, sectioned, and subjected to H&E staining. Blood was analyzed as described in Supplementary, Chapter 10.
Blood was collected from the retro-orbital sinus of mice under isoflurane anesthesia into heparin-coated tubes (Kabe Laboratortechnik GmbH, Nümbrecht-Elsenroth, Germany) after 3 hours of fasting. Blood was left for 10 minutes at room temperature, and then kept on ice until centrifugation (5,000 g at 4°C for 10 minutes). The collected plasma was stored at -80 °C until measurement. Lipoprotein levels and other plasmatic parameters were measured on an AU480 biochemistry analyzer (Beckman Coulter, Brea, USA).

[4] = HFD and HCD studies (Fig. 4e, h)
[5] = HFD, MI883 HFD, individual animals
[6] = chow / vehicle / MI-883, individual animals
[7] = individual animals, MI-883 vs vehicle
[8] = normal diet, individual animals

mouse Car, sequence (O35627 whole entry): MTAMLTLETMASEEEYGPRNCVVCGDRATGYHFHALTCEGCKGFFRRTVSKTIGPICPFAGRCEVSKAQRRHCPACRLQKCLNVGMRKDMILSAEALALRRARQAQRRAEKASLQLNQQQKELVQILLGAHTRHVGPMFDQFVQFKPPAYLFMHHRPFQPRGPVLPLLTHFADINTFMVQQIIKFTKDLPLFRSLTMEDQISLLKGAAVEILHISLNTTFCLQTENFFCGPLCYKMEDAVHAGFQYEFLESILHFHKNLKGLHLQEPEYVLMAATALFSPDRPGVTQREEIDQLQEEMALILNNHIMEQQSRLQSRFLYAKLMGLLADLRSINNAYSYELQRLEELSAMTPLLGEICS

In the case of `NC(=O)c1cc(Cn2cc(-c3c(-c4ccc(Cl)cc4)nc4cc(F)ccn34)nn2)ccc1Cl` [MI-883, 2-chloro-5-((4-(2-(4-chlorophenyl)-7-fluoroimidazo[1,2-a]pyridin-3-yl)-1H-1,2,3-triazol-1-yl)methyl)benzamide], the half-life [1] is reported as greater than 120 min, the “NRs assays: mCar (relative to ctrl, replicates)” value [2] is reported as 1.15 and 1.36 and 1.11 and the BW ([3]; time point 0) is reported as 100. The BW ([3]; time point 3) was 99.94, the BW ([3]; time point 4) was 99.69 and the BW ([3]; time point 7) was 98.81. It also gave a BW ([3]; time point 8) of 98.7, a BW ([3]; time point 9) of 99.01 and a BW ([3]; time point 11) of 97.62. The BW ([3]; time point 14) was 97.62, the BW ([3]; time point 16) was 98.66 and the BW ([3]; time point 18) was 95.35. For the same compound, the BW ([3]; time point 21) was 95.54, the BW ([3]; time point 25) was 95.05 and the “hepatic histology, morphology, steatosis with ballooning cells” value ([3]; H&E staining) was “did not observe affected hepatic histology, morphology, and steatosis”. For the same compound, the “plasma HDL cholesterol concentrations in males” value ([3]; HFD and HCD studies) was “decrease”, the “plasma LDL cholesterol levels” value [3, 4] was “systematic decrease” and the “total plasma cholesterol concentration” value [3, 4] was “systematic decrease”. The ALB ([3]; HFD female, individual animals) was 24.33 and 24.2 and 23.24 and 26.55 and 24.9, the ALP ([3]; HFD female, individual animals) was 113 and 92 and 67 and 82 and 103 and 98 and 123 and 110 and 111 and 88 and 70 and 60 and 74 and 94 and 83 and 97 and the ALT ([3]; HFD female, individual animals) was 22 and 33 and 42 and 31 and 44 and 26 and 25 and 20 and 30 and 27. The AST ([3]; HFD female, individual animals) was 36 and 56 and 60 and 42 and 80 and 46 and 43 and 45 and 48 and 52, the Bilirubin ([3]; HFD female, individual animals) was 1.91 and 1.99 and 1.49 and 1.73 and 2.08 and 1.88 and 2.79 and 0.89 and 1.63 and 0.8 and 1.21 and 0.66 and 1.02 and 0.93 and the CREZ ([3]; HFD female, individual animals) was 8.81 and 10.944 and 9.86 and 9.877 and 9.32 and 9.613 and 6.396. The Fe ([3]; HFD female, individual animals) was 19.66 and 16.34 and 16.57 and 13.12 and 20.06 and 22.23 and 20.85, the LDH ([3]; HFD female, individual animals) was 105.53 and 141.23 and 148.87 and 187.77 and 168.5 and 171.83 and 139.86 and 141.62 and 132.6 and 117.06 and 243.58 and 169.43 and 199.88 and 175.99 and 186.41 and 240.46 and 159.98 and the Urea ([3]; HFD female, individual animals) was 6.32 and 7.96 and 9.13 and 6.71 and 5.59 and 7.45 and 7.35 and 5.3. For the same compound, the “body weight or food intake” value ([3]; HFD, 5 mg/kg 3× per week p.o., one month) was “no significant effect”, the “liver weight (LW) and liver-to-body weight (LW/BW)” value ([3]; HFD, after 1-month application) was “increase” and the ALB [3, 5] was 30.28 and 28.44 and 27.19 and 26.19 and 27.85 and 26.86 and 29.5 and 28.87 and 29.11 and 28.18 and 27.81 and 29.6 and 31.94 and 31.6 and 25.37 and 30.94. For the same compound, the ALP [3, 5] was 46 and 65 and 58 and 53 and 57 and 59 and 87 and 78 and 134 and 85 and 147 and 42 and 80 and 203 and 48 and 62 and 47, the ALT [3, 5] was 111 and 104 and 91 and 82 and 86 and 81 and 194 and 185 and 231 and 101 and 144 and 333 and 40 and 171 and 279 and 78 and 136 and 35 and the AST [3, 5] was 61 and 103 and 71 and 75 and 84 and 65 and 111 and 106 and 115 and 97 and 60 and 215 and 57 and 86 and 96 and 62. The Bilirubin [3, 5] was 6.24 and 2.33 and 2.77 and 2.03 and 2.43 and 2.14 and 2.07 and 1.65 and 0.69 and 0.83 and 0.78 and 2.19 and 1.62 and 2.1 and 2.2 and 2.29 and 2.82 and 3.89, the CREZ [3, 5] was 6.64 and 6.515 and 6.651 and 6.864 and 6.4 and 11.788 and 9.016 and 8.705 and 10.01 and 10.479 and 10.075 and 9.458 and 9.179 and 10.214 and 7.193 and 7.711 and the Fe [3, 5] was 25.96 and 27.35 and 19.07 and 29.46 and 21.87 and 40.46 and 33.38 and 35.58 and 29.04 and 23.68 and 27.39 and 20.96 and 37.12 and 36.65 and 34.04 and 37.51 and 32.98 and 21.67 and 30.02 and 31.93. The LDH [3, 5] was 198.22 and 263.31 and 253.93 and 193.25 and 209.81 and 272.82 and 399.88 and 396.59 and 572.08 and 407.53 and 224.02 and 465.2 and 571.59 and 132.99 and 401.74 and 1012.86 and 180.55 and 261.31 and 251.38 and 204.74, the Urea [3, 5] was 8.86 and 6.88 and 6.46 and 8.34 and 10.25 and 5.64 and 6.34 and 6.16 and 6.83 and 6.9 and 7.15 and 6.75 and 6.76 and 5.98 and 5.4 and the Uric acid [3, 5] was 34.39 and 75.29 and 81.6 and 51.23 and 51.93 and 56.87 and 65.17 and 44.52 and 78.74 and 74.95 and 74.71 and 112.08 and 32.89 and 40.5 and 30.33 and 46.79 and 41.52 and 45.58 and 40.84. The “food intake (Fig 4c)” value ([3]; MI-883 vs vehicle line) was 2.1 and 3.3 and 2.8 and 2.6 and 2.7, the “triglycerides and glucose concentrations in males” value ([3]; both studies) was “did not see any significant effects” and the “signs of hepatotoxicity or nephrotoxicity based on biochemical parameters” value ([3]; both studies (HFD, HCD)) was “did not observe”. The “other plasma biochemical parameters” value ([3]; both studies, Supplementary Fig. 11) was “did not impact”, the “Chol (Fig. 4e)” value [3, 6] was 4.25 and 4.28 and 2.95 and 3.55 and 3.29 and 4.43 and 4.16 and 4.71 and 4.02 and 3.77 and 3.86 and 4.66 and 3.96 and 4.68 and 3.68 and the “Glu (Fig. 4e)” value [3, 6] was 10.58 and 14.95 and 11.18 and 14.52 and 13.99 and 12.86 and 13.45 and 16.77 and 19.28 and 18.71 and 17.05 and 15.9 and 14.58 and 9.64 and 14.8 and 12.42. The “HDL (Fig. 4e)” value [3, 6] was 3.307 and 3.291 and 2.143 and 2.747 and 3.405 and 3.464 and 3.127 and 2.59 and 3.382 and 3.348 and 3.749 and 3.32 and 3.251 and 2.944 and 3.197 and 2.432 and 3.457 and 2.752, the “LDL (Fig. 4e)” value [3, 6] was 0.69 and 0.66 and 0.46 and 0.49 and 0.67 and 0.52 and 0.82 and 0.7 and 1.08 and 0.75 and 0.63 and 0.85 and 1.01 and 0.81 and the “TG (Fig. 4e)” value [3, 6] was 3.307 and 3.291 and 2.143 and 2.747 and 3.405 and 3.464 and 3.127 and 2.59 and 3.382 and 3.348 and 3.749 and 3.32 and 3.251 and 2.944 and 3.197 and 2.432 and 3.457 and 2.752. The “BW (Fig 4b)” value [3, 7] was 36.3 and 38.1 and 36.8 and 38.8 and 38 and 34.3 and 36.4 and 31 and 45.2 and 42 and 35.4 and 38.9 and 39.5 and 42.8 and 39.3 and 39.9 and 40 and 37 and 42.6 and 40.9 and 39.2 and 38.5, the “LW (Fig 4b)” value [3, 7] was 2.77 and 2.32 and 1.65 and 2.28 and 2.58 and 2.48 and 2.14 and 2.06 and 1.7 and 3.5 and 3.3 and 1.85 and 3.4 and 3.1 and 4.26 and 3.42 and 3.33 and 3.06 and 2.35 and 3.38 and 2.25 and 3.12 and 1.56 and the diarrhea ([3]; mouse, in vivo) was “did not observe any diarrhea”. For the same compound, the “Chol (Fig. 4e)” value [3, 8] was 1.85 and 1.75, the “Glu (Fig. 4e)” value [3, 8] was 12.37 and 16.62 and the “HDL (Fig. 4e)” value [3, 8] was 1.205 and 1.168. For the same compound, the “LDL (Fig. 4e)” value [3, 8] was 0.45 and 0.42 and the “TG (Fig. 4e)” value [3, 8] was 1.205 and 1.168.
